In experiment [1] the test system is glucosidase. Put plainly: Sucrose feeding test: postprandial blood sugar after oral sucrose + glucosidase inhibitor in fasting rats. The experiment is classed as in vivo, rat. The procedure: (§1) The in vivo activity of the compound was tested on some examples using the experimental arrangement described in the following text.
(§2) Oral administration of starch or sucrose causes a rise in the blood sugar in warm-blooded animals, provided that the carbohydrates are enzymatically degraded in the small intestine to monosaccharides. The inhibition of their enzymatic hydrolysis by glucosidase inhibitors causes a reduced rise in the blood sugar.
(§3) In order to detect the action of glucosidase inhibitors, 6 fasting rats receive perorally, 1 g of broiled starch or 2.5 g of sucrose/kg in the form of an aqueous suspension or in the form of an aqueous solution (starch and sucrose control respectively). An equal number of rats receive the glucosidase inhibitor in the dose indicated, together with the same amount of the carbohydrate concerned. An equal volume of physiological sodium chloride solution is administered orally to a further six rats (control). After administration of the carbohydrate concerned±glucosidae inhibitor, the postprandial change in blood sugar is measured, at the times indicated, in blood from the postorbital venous plexus in an auto-analyser according to the method of W. S. Hoffmann [J biol. Chem 120, 51 (1937)].

Experiment [2] has as its system glucosidase. The experiment is described as follows: Starch feeding test: postprandial blood sugar after oral starch + glucosidase inhibitor in fasting rats. The experiment is classed as in vivo, rat. The conditions noted are these: for Blood sugar ± standard deviation, 45 minutes: starch control 120 ± 7.9, fasting control 102 ± 6.7; for Blood sugar ± standard deviation, 60 minutes: starch control 118 ± 6.9, fasting control 88 ± 7.4. The procedure: as §1, §2, §3

[3] abbreviates: 10 mg/kg perorally + 2.5 g sucrose/kg, sucrose control 113 ± 6.5, fasting control 61 ± 13.
[4] abbreviates: 10 mg/kg perorally + 2.5 g sucrose/kg, sucrose control 116 ± 9.2, fasting control 65 ± 3.9.
Where [5] appears, read: 10 mg/kg perorally + 2.5 g sucrose/kg, sucrose control 104 ± 12, fasting control 66 ± 6.9.
Setting [6] is: 10 mg/kg perorally + 2.5 g sucrose/kg, sucrose control 123 ± 8.1, fasting control 76 ± 3.7.
[7] abbreviates: 10 mg/kg perorally + 1 g starch/kg, starch control 146 ± 19, fasting control 82 ± 12.
Setting [8] is: 10 mg/kg perorally + 1 g starch/kg, starch control 144 ± 8.9, fasting control 72 ± 10.
[9] abbreviates: 10 mg/kg perorally + 1 g starch/kg.

Take `COC(=O)c1ccc(O[C@@H]2O[C@H](CO)[C@@H](O[C@H]3O[C@H](CO)[C@@H](O[C@H]4O[C@H](C)[C@@H](N[C@H]5C=C(CO)[C@@H](O)[C@H](O)[C@H]5O)[C@H](O)[C@H]4O)[C@H](O)[C@H]3O)[C@H](O)[C@H]2O)cc1` [Compound 6, p-Carbomethoxyphenyl-O-{C}-(1→4)-O-α-D-glcp-(1→5)-β-D-glucopyranoside]: the “Blood sugar ± standard deviation, 15 minutes” value was found to be 96 ± 15 mg/dL in experiment [1] (0.78 mg/kg perorally + 2.5 g sucrose/kg, sucrose control 128 ± 8.0, fasting control 60 ± 4.6) and 110 ± 6.1 mg/dL in experiment [2] (0.78 mg/kg perorally + 1 g starch/kg, starch control 131 ± 7.2, fasting control 60 ± 4.2). Moreover, the “Blood sugar ± standard deviation, 30 minutes” value in experiment [1] (0.78 mg/kg perorally + 2.5 g sucrose/kg, sucrose control 133 ± 8.7, fasting control 64 ± 3.7) was 100 ± 3.4 mg/dL; in experiment [2] (0.78 mg/kg perorally + 1 g starch/kg, starch control 113 ± 9.2, fasting control 62 ± 3.4) it was 105 ± 10 mg/dL. Moreover, the “Blood sugar ± standard deviation, 45 minutes” value in experiment [1] (0.78 mg/kg perorally + 2.5 g sucrose/kg, sucrose control 134 ± 6.1, fasting control 73 ± 7.1) is 106 ± 18 mg/dL. Also, in experiment [1] (0.78 mg/kg perorally + 2.5 g sucrose/kg, sucrose control 119 ± 10, fasting control 66 ± 4.2), the “Blood sugar ± standard deviation, 60 minutes” value stood at 117 ± 6.5 mg/dL.

`C[C@H]1O[C@H](O[C@H]2[C@H](O)[C@@H](O)[C@@H](O[C@H]3[C@H](O)[C@@H](O)[C@H](Oc4ccc([N+](=O)[O-])cc4)O[C@@H]3CO)O[C@@H]2CO)[C@H](O)[C@@H](O)[C@@H]1N[C@H]1C=C(CO)[C@@H](O)[C@H](O)[C@H]1O` [Compound 1, p-Nitrophenyl-O-{C}-(1→4)-O-α-D-glcp-(1→4)-β-D-glucopyranoside]: the “Blood sugar ± standard deviation, 15 minutes” value in experiment [1] (0.86 mg/kg perorally + 2.5 g sucrose/kg, sucrose control 128 ± 8.0, fasting control 60 ± 4.6) was found to be 103 ± 6.4 mg/dL; in experiment [2] (0.86 mg/kg perorally + 1 g starch/kg, starch control 131 ± 7.2, fasting control 60 ± 4.2), 93 ± 6.4 mg/dL. Moreover, the “Blood sugar ± standard deviation, 30 minutes” value in experiment [1] (0.86 mg/kg perorally + 2.5 g sucrose/kg, sucrose control 133 ± 8.7, fasting control 64 ± 3.7) is 110 ± 10 mg/dL; in experiment [2] (0.86 mg/kg perorally + 1 g starch/kg, starch control 113 ± 9.2, fasting control 62 ± 3.4) it was 84 ± 12 mg/dL. In addition, the “Blood sugar ± standard deviation, 45 minutes” value in experiment [1] (0.86 mg/kg perorally + 2.5 g sucrose/kg, sucrose control 134 ± 6.1, fasting control 73 ± 7.1) is 108 ± 13 mg/dL. Moreover, the “Blood sugar ± standard deviation, 60 minutes” value in experiment [1] (0.86 mg/kg perorally + 2.5 g sucrose/kg, sucrose control 119 ± 10, fasting control 66 ± 4.2) was 107 ± 11 mg/dL.

Turning to `C[C@H]1O[C@H](O[C@H]2[C@H](O)[C@@H](O)[C@@H](O[C@H]3[C@H](O)[C@@H](O)[C@H](Oc4ccccc4)O[C@@H]3CO)O[C@@H]2CO)[C@H](O)[C@@H](O)[C@@H]1N[C@H]1C=C(CO)[C@@H](O)[C@H](O)[C@H]1O` [Compound 2, Phenyl-O-{C}-(1→4)-O-α-D-glcp-(1→4)-β-D-glucopyranoside], the “Blood sugar ± standard deviation, 15 minutes” value turned out to be 79 ± 4.1 mg/dL in experiment [1] (setting [3]) and 102 ± 10 mg/dL in experiment [2] (setting [7]). The “Blood sugar ± standard deviation, 30 minutes” value was found to be 86 ± 10 mg/dL in experiment [1] (setting [4]) and 73 ± 9.1 mg/dL in experiment [2] (setting [8]). Besides, the “Blood sugar ± standard deviation, 45 minutes” value in experiment [1] (setting [5]) turned out to be 74 ± 7.2 mg/dL; in experiment [2] (setting [9]), 100 ± 6.5 mg/dL. Also, the “Blood sugar ± standard deviation, 60 minutes” value amounted to 71 ± 15 mg/dL in experiment [1] (setting [6]) and 108 ± 9.3 mg/dL in experiment [2] (setting [9]).

As for `C[C@H]1O[C@H](O[C@H]2[C@H](O)[C@@H](O)[C@@H](O[C@@H]([C@H](O)[C@@H](O)CO)[C@H](O)CO)O[C@@H]2CO)[C@H](O)[C@@H](O)[C@@H]1N[C@H]1C=C(CO)[C@@H](O)[C@H](O)[C@H]1O` [Compound 22], in experiment [1] (1.54 mg/kg perorally + 2.5 g sucrose/kg, sucrose control 134 ± 13, fasting control 71 ± 3.7), the “Blood sugar ± standard deviation, 15 minutes” value was found to be 80 ± 3.7 mg/dL. Also, the “Blood sugar ± standard deviation, 30 minutes” value in experiment [1] (1.54 mg/kg perorally + 2.5 g sucrose/kg, sucrose control 116 ± 20, fasting control 70 ± 5.3) was found to be 79 ± 5.2 mg/dL. In addition, the “Blood sugar ± standard deviation, 45 minutes” value in experiment [1] (1.54 mg/kg perorally + 2.5 g sucrose/kg, sucrose control 125 ± 8.6, fasting control 77 ± 5.5) was 86 ± 4.5 mg/dL. Besides, the “Blood sugar ± standard deviation, 60 minutes” value in experiment [1] (1.54 mg/kg perorally + 2.5 g sucrose/kg, sucrose control 112 ± 15, fasting control 78 ± 7.3) turned out to be 86 ± 11 mg/dL.

Turning to `COC(=O)c1cccc(O[C@@H]2O[C@H](CO)[C@@H](O[C@H]3O[C@H](CO)[C@@H](O[C@H]4O[C@H](C)[C@@H](N[C@H]5C=C(CO)[C@@H](O)[C@H](O)[C@H]5O)[C@H](O)[C@H]4O)[C@H](O)[C@H]3O)[C@H](O)[C@H]2O)c1` [Compound 4, m-Carbomethoxyphenyl-O-{C}-(1→4)-O-α-D-glcp-(1→4)-β-D-glucopyranoside], the “Blood sugar ± standard deviation, 15 minutes” value in experiment [1] (1.56 mg/kg perorally + 2.5 g sucrose/kg, sucrose control 128 ± 8.0, fasting control 60 ± 4.6) is 95 ± 7.0 mg/dL; in experiment [2] (1.56 mg/kg perorally + 1 g starch/kg, starch control 131 ± 7.2, fasting control 60 ± 4.2), 99 ± 8.1 mg/dL. Further, the “Blood sugar ± standard deviation, 30 minutes” value amounted to 112 ± 5.5 mg/dL in experiment [1] (1.56 mg/kg perorally + 2.5 g sucrose/kg, sucrose control 133 ± 8.7, fasting control 64 ± 3.7) and 97 ± 10 mg/dL in experiment [2] (1.56 mg/kg perorally + 1 g starch/kg, starch control 113 ± 9.2, fasting control 62 ± 3.4). Also, the “Blood sugar ± standard deviation, 45 minutes” value in experiment [1] (1.56 mg/kg perorally + 2.5 g sucrose/kg, sucrose control 134 ± 6.1, fasting control 73 ± 7.1) was 104 ± 6.7 mg/dL. Moreover, the “Blood sugar ± standard deviation, 60 minutes” value in experiment [1] (1.56 mg/kg perorally + 2.5 g sucrose/kg, sucrose control 119 ± 10, fasting control 66 ± 4.2) is 115 ± 7.0 mg/dL.

For `CCO[C@@H]1O[C@H](CO)[C@@H](O[C@H]2O[C@H](C)[C@@H](N[C@H]3C=C(CO)[C@@H](O)[C@H](O)[C@H]3O)[C@H](O)[C@H]2O)[C@H](O)[C@H]1O` [Compound 15, Ethyl-O-{C}-(1→4)-β-D-glucopyranoside], the “Blood sugar ± standard deviation, 15 minutes” value in experiment [1] (setting [3]) is 80 ± 6.1 mg/dL. For the same molecule, the “Blood sugar ± standard deviation, 30 minutes” value in experiment [1] (setting [4]) was 83 ± 9.4 mg/dL. The “Blood sugar ± standard deviation, 45 minutes” value in experiment [1] (setting [5]) was 87 ± 4.8 mg/dL. In addition, in experiment [1] (setting [6]), the “Blood sugar ± standard deviation, 60 minutes” value stood at 94 ± 13 mg/dL.

For the molecule `C[C@H]1O[C@H](O[C@H]2[C@H](O)[C@@H](O)[C@H](Oc3ccccc3)O[C@@H]2CO)[C@H](O)[C@@H](O)[C@@H]1N[C@H]1C=C(CO)[C@@H](O)[C@H](O)[C@H]1O` [Compound 13, Phenyl-O-C-(1→4)-β-D-glucopyranoside], the “Blood sugar ± standard deviation, 15 minutes” value is 79 ± 6.8 mg/dL in experiment [1] (setting [3]) and 70 ± 8.3 mg/dL in experiment [2] (setting [7]). The “Blood sugar ± standard deviation, 30 minutes” value in experiment [1] (setting [4]) came out at 80 ± 5.4 mg/dL; in experiment [2] (setting [8]), 40 ± 6.8 mg/dL. The “Blood sugar ± standard deviation, 45 minutes” value in experiment [1] (setting [5]) came out at 85 ± 16 mg/dL; in experiment [2] (setting [9]), 89 ± 9.0 mg/dL. Moreover, the “Blood sugar ± standard deviation, 60 minutes” value stood at 86 ± 2.0 mg/dL in experiment [1] (setting [6]) and 100 ± 4.6 mg/dL in experiment [2] (setting [9]).

With `C[C@H]1O[C@H](O[C@H]2[C@H](O)[C@@H](O)[C@@H](O[C@H]3[C@H](O)[C@@H](O)[C@H](Oc4cccc(O)c4)O[C@@H]3CO)O[C@@H]2CO)[C@H](O)[C@@H](O)[C@@H]1N[C@H]1C=C(CO)[C@@H](O)[C@H](O)[C@H]1O` [Compound 3, m-Hydroxyphenyl-O-{C}-(1→4)-O-α-D-glcp-(1→4)-β-D- glucopyranoside], the “Blood sugar ± standard deviation, 15 minutes” value in experiment [1] (0.92 mg/kg perorally + 2.5 g sucrose/kg, sucrose control 128 ± 8.0, fasting control 60 ± 4.6) was found to be 97 ± 10 mg/dL; in experiment [2] (0.92 mg/kg perorally + 1 g starch/kg, starch control 131 ± 7.2, fasting control 60 ± 4.2) it was 89 ± 8.0 mg/dL. For the same molecule, the “Blood sugar ± standard deviation, 30 minutes” value was 108 ± 4.2 mg/dL in experiment [1] (0.92 mg/kg perorally + 2.5 g sucrose/kg, sucrose control 133 ± 8.7, fasting control 64 ± 3.7) and 97 ± 13 mg/dL in experiment [2] (0.92 mg/kg perorally + 1 g starch/kg, starch control 113 ± 9.2, fasting control 62 ± 3.4). In addition, the “Blood sugar ± standard deviation, 45 minutes” value in experiment [1] (0.92 mg/kg perorally + 2.5 g sucrose/kg, sucrose control 134 ± 6.1, fasting control 73 ± 7.1) turned out to be 112 ± 15 mg/dL. Also, the “Blood sugar ± standard deviation, 60 minutes” value in experiment [1] (0.92 mg/kg perorally + 2.5 g sucrose/kg, sucrose control 119 ± 10, fasting control 66 ± 4.2) is 111 + 11 mg/dl.
